{"source": "patent US8404803B2", "about": "“Cancer-associated antigen analogue peptides and uses thereof” (Chugai Seiyaku Kabushiki Kaisha, priority 2005, dated 2013)", "type_in_all_cases": "cell-based, human", "key": {"[1]": {"tested_on": "CD4-positive/IFNγ-producing T cells", "assay": "Flow cytometry detection of CD4-positive/IFNγ-positive T cells in peptide-stimulated mononuclear cell samples", "conditions": "for CD4+ IFNγ+ number of positive samples/tested samples: mononuclear cell samples cultured 48 hours with peptide and IL-2; for CD4+ IFNγ+ number of positive samples/tested samples / CD4+ IFNγ+ number of positive samples/tested samples × 100 (%): positive sample > mean of control + 2 × SD (OVCA10-MNC group, 1.378%)", "method": "(§1) All operations concerning cell culture were performed aseptically. First, human peripheral mononuclear cell fractions (comprising T cells, B cells, macrophages and such; hereinafter referred to as “mononuclear cell samples”) were prepared from the blood samples by density gradient centrifugation. Next, these mononuclear cells were suspended at 1×10^5 cell/ml in complete media having the following composition: • Complete Medium: RPMI1640 culture medium (Gibco Laboratories Inc., Grand Island, N.Y.) to which 10% fetal bovine serum (Cell Culture Laboratories, Cleveland, Ohio), 0.2 mM L-glutamine, 100 U/mL penicillin, 100 μg/mL streptomycin (Gibco Laboratories Inc.), and 0.2 ng/mL recombinant human IL-2 (Dainippon Pharmaceutical Co., Tokyo, Japan) have been mixed.\n(§2) Theses mononuclear cell samples were placed still in V-bottomed 96-well tissue culture plastic plates (Flow Laboratories Inc., Horsham, Pa.) in the presence and absence of peptides, and cultured for 48 hours at 37° C. in a CO2 culture apparatus (Sanyo Medica, Osaka, Japan).\n(§3) A number of mouse-derived anti-human specific monoclonal antibodies with different fluorescences (hereinafter referred to as ‘monoclonal antibodies’) were used to simultaneously analyze by double-staining the CD markers CD4 and CD8, which are on the T cell membranes, and the cytokines within the T cells. As the monoclonal antibodies, products labeled with either fluorescent substance phycoerythrin (hereinafter ‘PE’) or fluorescein isothiocyanate (hereinafter ‘FITC’) were used (Miltenyi Biotec, Glandbach, Germany). For detection, a flow cytometry apparatus FACScan (Becton Dickinson) was used to measure the frequency of cells to which the monoclonal antibodies had bound. Positive cells are automatically detected by the flow cytometry apparatus.\n(§4) Since positive cells cannot be identified after the cytokines have been secreted to the outside of the cells, detection was performed at a stage where the cytokines are inside the cells. Therefore, the Cytofix/Cytoperm Kit (Pharmingen, San Diego, Calif.) was used for the analysis, using methods recommended by the manufacturer and a positive control for detection recommended by the kit (Prussin C, Metcalfe D, Detection of intracytoplasmic cytokine using flow cytometry and directly conjugated anti-cytokine antibodies, J Immunol Meth. 188: 117-128, 1995). Specifically, brefeldin A (Pharmingen, San Diego, Calif.) was added at 0.7 μl/1 ml/well to stop protein production in the Golgi apparatus, and the peptide-stimulated mononuclear cell samples were treated at 37° C. for two hours. Next, the culture plates were placed on ice and the reaction was stopped by adding physiological saline at 4° C. The mononuclear cell samples were transferred into 15 ml tubes as though by washing with the physiological saline at 4° C., and were then centrifuged at 1600 rpm for ten minutes to remove the supernatant.\n(§5) First, to dye CD4s on the cell surface, 10 μl of FITC-labeled mouse anti-human CD4 was added, with CD8 monoclonal antibody as a control, and this was reacted at 4° C. for 30 minutes. The cells were then separated with 0.5% bovine serum albumin/physiological saline at 4° C., then 0.5% bovine serum albumin/physiological saline at 4° C. was added thereto, and this was centrifuged at 1600 rpm for ten minutes at 4° C. to remove the supernatant.\n(§6) Next, the mononuclear cell samples were fixed and their cell membranes were permeabilized. The cells were suspended in 250 μl of Cytofix/Cytoperm (Pharmingen) solution and reacted at 4° C. for 20 minutes. 10 μl of the aforementioned fluorescently labeled anti-IFNγ monoclonal antibody or anti-IL-4 monoclonal antibody was added to these mononuclear cell samples and reacted at 4° C. for 30 minutes. Then, the cells were separated by adding 0.5% bovine serum albumin/physiological saline at 4° C., and 0.5% BSA/PBS at 4° C. was further added thereto. After centrifugation at 1600 rpm for ten minutes at 4° C., the supernatant was removed. […]"}, "[2]": {"tested_on": "CD4-positive/IL-4-producing T cells", "assay": "Flow cytometry detection of CD4-positive/IL-4-positive T cells in peptide-stimulated mononuclear cell samples", "conditions": "for CD4+ IL-4+ number of positive samples/tested samples: mononuclear cell samples cultured 48 hours with peptide and IL-2; for CD4+ IL-4+ number of positive samples/tested samples / CD4+ IL-4+ number of positive samples/tested samples × 100 (%): positive sample > mean of control + 2 × SD (OVCA10-MNC group, 1.148%)", "method": "as §1, §2, §3, §4, §5, §6"}, "[3]": {"tested_on": "CD4-positive/TNFα-positive T cells", "assay": "Flow cytometry detection of CD4 and TNFα in OVCA11-stimulated T cells", "conditions": "typical example, FIG. 12; after OVCA11 stimulation (0.44% before)", "source_text": "as §3\n(§7) Since positive cells cannot be identified after the cytokines have been secreted to the outside of the cells, detection was performed at a stage where the cytokines are inside the cells. […]\n(§8) T cells activated in an antigen-specific manner are known to produce tumor necrosis factor α (TNFα) when they injure target cells, such as tumor cells. Therefore, the OVCA11-stimulated T cells obtained in [Example 3] were analyzed by flow cytometry to determine whether they indeed produced TNFα, using a similar method to [Example 3] and combinations of CD4 and TNFα, and CD8 and TNFα."}, "[4]": {"tested_on": "CD8-positive/TNFα-positive T cells", "assay": "Flow cytometry detection of CD8 and TNFα in OVCA11-stimulated T cells", "conditions": "typical example, FIG. 12; after OVCA11 stimulation (0.28% before)", "source_text": "as §3, §7, §8"}, "CD4-positive T cells": {"tested_on": "CD4-positive T cells", "assay": "Analysis of the CD4-positive T cell epitope (T cells positive for IL-4 or IFNγ)", "conditions": "peptides with ten amino acid residues reproducing the MUC16 primary sequence", "method": "The results were recorded as: number of double staining-positive cells/total number of counted mononuclear cells ×100=positive cell frequency (%). Furthermore, peptide antigen-specific T cell reactions were determined to be positive when the individual frequencies of positive cells in the mononuclear cell samples were the same as or greater than the mean plus two standard deviations (mean+2SD) of the negative control group, where the negative control was a mononuclear cell sample group that had been stimulated with analogue peptide (OVCA10 stimulation). In addition, each of the peptide-stimulated groups were compared by using t-tests to measure the significant difference.\nNext, to determine the T cell epitope (based not on the analogues but on the original sequence), the present inventors went back to the original amino acid sequence of the 11-times repeat sequences of MUC16 from which the 30 amino acid residue sequence: […] (SEQ ID NO: 45) common to OVCA11 and OVCA12 was derived. Furthermore, the sequence was divided into lots of ten amino acid residues to prepare OVCA101 (SEQ ID NO: 4), 102 (SEQ ID NO: 5), 103 (SEQ ID NO: 6), 104 (SEQ ID NO: 7), 105 (SEQ ID NO: 8), 106 (SEQ ID NO: 9), 107 (SEQ ID NO: 2), 108 (SEQ ID NO: 3), 109, 110, 111, 112, 113, 114, 115 (SEQ ID NO: 10) (FIG. 5), and T cells positive for IL-4 or IFNγ were detected using a method similar to the above."}}}
{"sequence": "GHTAPGPLLVPFTLNFTITN (listed as Homo sapiens) [OVCA11]", "values": [{"measurement": "frequency of CD4-positive/IFNγ-producing T cells compared to groups to which OVCA10 was added", "setting": "[1]; FIG. 11, peptide 15 μM, statistically significant difference", "result": "higher"}, {"measurement": "frequency of CD4-positive/INFγ-positive cells, mean±standard deviation", "setting": "[1]; all of the analyzed mononuclear cell samples (FIG. 11), peptide 15 μM", "result": "3.037±2.234", "unit": "%"}, {"measurement": "average number of IFNγ-positive cells", "setting": "[1]; healthy group", "result": 3.48, "unit": "%"}, {"measurement": "CD4+ IFNγ+ number of positive samples/tested samples", "setting": "[1]", "result": "26/33"}, {"measurement": "CD4+ IFNγ+ number of positive samples/tested samples", "setting": "[1]; listed as OVCA 11", "result": "26 of the 33"}, {"measurement": "average number of IFNγ-positive cells", "setting": "[1]; patient group", "result": 2.85, "unit": "%"}, {"measurement": "CD4+ IFNγ+ number of positive samples/tested samples × 100 (%)", "setting": "[1]", "result": 78.8, "unit": "%"}, {"measurement": "CD4+ IFNγ+ number of positive samples/tested samples × 100 (%)", "setting": "[1]; listed as OVCA 11", "result": 78.8, "unit": "%"}, {"measurement": "frequency of CD4-positive/IFNγ-positive T cells", "setting": "[1]; typical example of flow cytometry, FIGS. 9 and 10, IL-2 and analogue peptide added", "result": 3.12, "unit": "%"}, {"measurement": "frequency of CD4-positive/IL-4-producing T cells compared to groups to which OVCA10 was added", "setting": "[2]; FIG. 8, peptide 15 μM, statistically significant difference", "result": "higher"}, {"measurement": "frequency of CD4-positive/IL-4-positive cells, mean±standard deviation", "setting": "[2]; all the analyzed mononuclear cell samples (FIG. 8), peptide 15 μM", "result": "4.314±2.805", "unit": "%"}, {"measurement": "average number of IL-4-positive cells", "setting": "[2]; healthy group", "result": 4.89, "unit": "%"}, {"measurement": "CD4+ IL-4+ number of positive samples/tested samples", "setting": "[2]", "result": "27/32"}, {"measurement": "CD4+ IL-4+ number of positive samples/tested samples", "setting": "[2]; listed as OVCA 11", "result": "27 of the 32"}, {"measurement": "average number of IL-4-positive cells", "setting": "[2]; patient group", "result": 4.12, "unit": "%"}, {"measurement": "CD4+ IL-4+ number of positive samples/tested samples × 100 (%)", "setting": "[2]", "result": 84.4, "unit": "%"}, {"measurement": "CD4+ IL-4+ number of positive samples/tested samples × 100 (%)", "setting": "[2]; listed as OVCA 11", "result": 84.4, "unit": "%"}, {"measurement": "frequency of CD4-positive/IL-4-positive T cells", "setting": "[2]; typical example of flow cytometry, FIGS. 6 and 7, IL-2 and analogue peptide added", "result": 7.06, "unit": "%"}, {"measurement": "frequency of CD4-positive/TNFα-positive T cells", "setting": "[3]", "result": 5.76, "unit": "%"}, {"measurement": "frequency of CD8-positive/TNFα-positive T cells", "setting": "[4]", "result": 3.98, "unit": "%"}]}
{"sequence": "PFTLNFTITN (listed as Homo sapiens) [OVCA107]", "values": [{"measurement": "recognized by CD4-positive T cells", "setting": "CD4-positive T cells", "result": "recognized by CD4-positive T cells"}, {"measurement": "frequency of CD4-positive/IFNγ-producing T cells at the time of epitope determination", "setting": "[1]; FIG. 16, peptide 15 μM", "result": "High frequency cases could be detected"}, {"measurement": "CD4-positive/IFNγ expression-positive frequencies, mean ± standard deviation", "setting": "[1]; epitope determination, patient's mononuclear cell samples (FIG. 16), peptide 15 μM", "result": "7.626±12.448", "unit": "%"}, {"measurement": "CD4+ IFNγ+ number of positive samples/tested samples", "setting": "[1]", "result": "3/8"}, {"measurement": "CD4+ IFNγ+ number of positive samples/tested samples × 100 (%)", "setting": "[1]", "result": 37.5, "unit": "%"}, {"measurement": "frequency of CD4-positive/IFNγ-positive T cells at the time of epitope determination", "setting": "[1]; typical example of flow cytometry, FIG. 15, IL-2 and peptide added", "result": 2.10, "unit": "%"}, {"measurement": "frequency of CD4-positive/IL-4-producing T cells at the time of epitope determination", "setting": "[2]; FIG. 14, peptide 15 μM", "result": "High frequency cases could be detected"}, {"measurement": "CD4-positive/IL-4-positive frequencies, mean ± standard deviation", "setting": "[2]; epitope determination, patient's mononuclear cell samples (FIG. 14), peptide 15 μM", "result": "8.036±12.870", "unit": "%"}, {"measurement": "CD4+ IL-4+ number of positive samples/tested samples", "setting": "[2]", "result": "5/9"}, {"measurement": "CD4+ IL-4+ number of positive samples/tested samples × 100 (%)", "setting": "[2]", "result": 55.6, "unit": "%"}, {"measurement": "frequency of CD4-positive/IL-4-positive T cells at the time of epitope determination", "setting": "[2]; typical example of flow cytometry, FIG. 13, IL-2 and peptide added", "result": 6.32, "unit": "%"}]}
